Patent publication US20210290557A1, “MULTI-PARTICULATE PHARMACEUTICAL COMPOSITION, IMMEDIATE RELEASE PELLETS, SUSTAINED RELEASE PELLETS, ENTERIC RELEASE PELLETS AND USE THEREOF” (Industrial Technology Research Institute, priority 2019, published 2021)

Test: Solubility test for sobrerol in dissolution medium with different pH and purified water
Assay type: physicochemical
Experimental: 1. The Preparation of Dissolution Medium with Different pH Levels:
(1) Dissolution Medium with pH 2.5
7.164 g of disodium hydrogen phosphate (containing 12 molecules of water) was added to a 100 mL volumetric flask, then purified water was added to quantify to 100 mL, and then stirred using a stir bar. After the disodium hydrogen phosphate (containing 12 molecules of water) in the volumetric flask was completely dissolved, a 0.2 M disodium hydrogen phosphate solution was obtained.
19.213 g of anhydrous citric acid was assed to a 1 L volumetric flask, then purified water water was added to quantify to 1 L, and then stirred using a stir bar. After the anhydrous citric acid in the volumetric flask was completely dissolved, a 0.1 M citric acid solution was obtained.
Next, According to the list of formulas of McIlvaine buffer with different pH values, 0.2 M […] solution and 0.1 M citric acid solution were mixed at a ratio of 1.71:18.29 to obtain a dissolution medium with pH 2.5.
(2) Dissolution Medium with pH 4.5
15.6 g of Sodium dihydrogen phosphate (containing 2 molecules of water) was added to a 1 L volumetric flask, then purified water water was added to quantify to 1 L, and then stirred using a stir bar. After the sodium dihydrogen phosphate (containing 2 molecules of water) in the volumetric flask was completely dissolved, a phosphate dissolution medium with pH 4.5 was obtained.
(3) Dissolution Medium with pH 6.8
7.8 g of Sodium dihydrogen phosphate (containing 2 molecules of water) and 0.94 g of sodium hydroxide were added to a 1 L volumetric flask, then purified water water was added to quantify to 1 L, and then stirred using a stir bar. […]
250 mL of dissolution medium prepared above or purified water water was added to a beaker and a stir bar was added for stirring. […] Sobrerol was continuously added until sobrerol cannot be completely dissolved within 30 minutes, and then the total amount of sobrerol added was counted, that was, the actual solubility limit of sobrerol.

soluble amount of sobrerol (actual solubility limit) (250 mL dissolution medium with pH 2.5, 4.5, 6.8 or purified water, all media): > 900 mg | effect of pH on solubility of sobrerol (dissolution medium with different pH and purified water): not affected by pH
SMILES: CC1=CCC(C(C)(C)O)CC1O (stereo not drawn) [sobrerol]
solubility classification according to FDA Biopharmaceutics Classification System guideline (soluble amount compared with the daily total of 900 mg): meets the specifications for high solubility drugs
